Data reported in the supplement of paper PMC10307832.

Legend:
Assay in all cases: relative viability (nuclei count vs DMSO), 5 days (fraction); higher = more cells survive
[1] = compound: CCC1=CN=CN=C1N2CCN(CC2)CC3=NC4=C(N3)C=C(C=C4)C(F)(F)F + O=C(CCCCCCC(=O)Nc1ccccc1)NO [Vorinostat] (partner 1 µM)
Outline: (§1)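 A single step with final 0.05% Triton X-100, 1% formaldehyde and 1 ug/ml Hoechst fixed the cells and stained nuclei 5 days after treatment. Lung cancer cell lines in 1536-well plates had been treated by pin tool the day after seeding with one drug alone or a fixed anchor-drug dose plus five library-drug doses (not always all listed) in √10 steps, and nuclei were counted on 4× images. Relative viability is the ratio of nuclei in treated wells to nuclei in vehicle wells, taken as the median of duplicate plates.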

[2] = compound: CCC1=CN=CN=C1N2CCN(CC2)CC3=NC4=C(N3)C=C(C=C4)C(F)(F)F + Nc1nc2[nH]cc(CCc3ccc(C(=O)N[C@@H](CCC(=O)O)C(=O)O)cc3)c2c(=O)[nH]1 [Pemetrexed] (partner 0.2 µM)
Outline: as §1

[3] = compound: CCC1=CN=CN=C1N2CCN(CC2)CC3=NC4=C(N3)C=C(C=C4)C(F)(F)F + COc1cccc2cc(-c3nc([C@H]4CC[C@H](C(=O)O)CC4)n4ncnc(N)c34)[nH]c12 [OSI-027] (partner 0.5 µM)
Outline: as §1

[4] = compound: CCn1c(-c2nonc2N)nc2cnc(Oc3cccc(NC(=O)c4ccc(OCCN5CCOCC5)cc4)c3)cc21 + CS(=O)(=O)N1CCN(Cc2cc3nc(-c4cccc5[nH]ncc45)nc(N4CCOCC4)c3s2)CC1 [Pictilisib] (partner 1 µM)
Outline: as §1

Cell Line | relative viability ([1]; first compound 0.04 µM) | relative viability ([1]; first compound 0.1265 µM) | relative viability ([1]; first compound 0.4 µM) | relative viability ([1]; first compound 1.265 µM) | relative viability ([1]; first compound 4 µM) | relative viability ([2]; first compound 0.04 µM) | relative viability ([2]; first compound 0.1265 µM) | relative viability ([2]; first compound 0.4 µM) | relative viability ([2]; first compound 1.265 µM) | relative viability ([2]; first compound 4 µM) | relative viability ([3]; first compound 0.04 µM) | relative viability ([3]; first compound 0.1265 µM) | relative viability ([3]; first compound 0.4 µM) | relative viability ([3]; first compound 1.265 µM) | relative viability ([3]; first compound 4 µM) | relative viability ([4]; first compound 0.04 µM) | relative viability ([4]; first compound 0.1265 µM) | relative viability ([4]; first compound 0.4 µM) | relative viability ([4]; first compound 1.265 µM) | relative viability ([4]; first compound 4 µM)
HCC-366 | 0.365 | 0.3 | 0.296 | 0.332 | 0.417 | 0.174 | 0.22 | 0.156 | 0.137 | 0.15 | 0.789 | 0.898 | 0.939 | 0.297 | 0.911 | 0.124 | 0.151 | 0.0942 | 0.0463 | 0.0657
HCC-827 | 0.895 | 0.856 | 0.788 | 0.781 | 0.744 | 0.268 | 0.221 | 0.276 | 0.242 | 0.278 | 0.829 | 0.69 | 0.719 | – | 0.673 | 1.08 | 1.06 | 1.09 | 0.824 | 0.933
HOP-62 | 0.604 | 0.56 | 0.462 | 0.429 | 0.606 | 0.283 | 0.293 | 0.326 | 0.275 | 0.283 | 0.81 | 0.794 | 0.756 | 0.757 | 0.85 | 0.88 | 0.757 | 0.599 | 0.535 | 0.433
IA-LM | – | 0.979 | 0.937 | 0.932 | 0.962 | – | – | – | – | – | – | – | – | – | – | 0.751 | 0.538 | 0.634 | 0.733 | 0.674
LC-2-ad | 0.737 | 0.652 | 0.636 | 0.687 | 0.682 | 0.272 | 0.266 | 0.283 | 0.289 | 0.292 | 0.826 | 0.908 | 0.913 | 0.69 | 0.791 | 0.683 | 0.729 | 0.372 | 0.451 | 0.386
LCLC-97TM1 | 0.607 | 0.685 | 0.642 | 0.711 | 0.751 | 0.161 | 0.152 | 0.153 | 0.194 | 0.173 | 0.477 | 0.582 | 0.452 | 0.506 | 0.577 | 0.261 | 0.363 | – | 0.351 | 0.236
LCLC-103H | 0.797 | 0.685 | 0.746 | 0.668 | 0.717 | 0.399 | 0.449 | 0.462 | 0.446 | 0.467 | 0.48 | 0.492 | 0.4 | 0.456 | 0.457 | 0.764 | 0.596 | 0.435 | 0.455 | 0.576
LK-2 | 0.245 | 0.235 | 0.356 | 0.223 | 0.244 | 0.281 | 0.259 | 0.253 | 0.199 | 0.302 | 0.17 | 0.22 | 0.182 | 0.165 | 0.23 | 0.711 | 0.777 | 0.615 | 0.255 | 0.392
LOU-NH91 | 0.842 | 0.907 | 0.927 | 0.76 | 0.993 | 0.377 | 0.318 | 0.378 | 0.348 | 0.379 | 0.613 | 0.709 | 0.711 | 0.677 | 0.75 | 0.61 | 0.613 | 0.484 | 0.475 | 0.495
LU99A | 0.608 | 0.486 | 0.528 | 0.466 | 0.652 | 0.187 | 0.169 | 0.178 | 0.177 | 0.248 | 0.287 | 0.281 | 0.316 | 0.283 | 0.289 | 0.392 | 0.322 | 0.192 | 0.317 | 0.214
LXF-289 | 0.933 | 0.735 | 0.718 | 0.742 | 0.789 | 0.938 | 0.777 | 0.915 | 0.977 | 0.788 | 0.762 | 0.713 | 0.628 | 0.643 | 0.815 | 0.923 | 0.761 | 0.539 | 0.56 | 0.516
NCI-H522 | 0.951 | 1.02 | 0.75 | 0.771 | 0.973 | 0.855 | 1.2 | 0.892 | 0.876 | 0.958 | 0.656 | 0.771 | 0.575 | 0.627 | 0.675 | – | – | – | – | –
NCI-H727 | 1.22 | 1.08 | 1.09 | 1.03 | 1.35 | – | – | – | – | – | 0.531 | 0.618 | 0.581 | 0.423 | 0.533 | 0.613 | 0.741 | 0.604 | 0.487 | 0.345
NCI-H1299 | – | – | – | – | – | – | – | – | – | – | – | – | – | – | – | 0.956 | 0.735 | 0.74 | 0.618 | 0.393
NCI-H1563 | – | – | – | – | – | 0.6 | 0.619 | 0.834 | 0.598 | 0.887 | 0.813 | 0.788 | 0.733 | 0.685 | 0.821 | 0.629 | 0.678 | 0.638 | 0.66 | 0.569
NCI-H1623 | – | – | – | – | – | – | – | – | – | – | 0.399 | 0.39 | 0.431 | 0.437 | 0.432 | – | – | – | – | –
NCI-H1648 | 0.684 | – | – | 0.362 | 0.403 | 0.614 | – | – | 0.769 | 0.683 | 0.259 | 0.278 | – | 0.278 | 0.314 | – | – | – | – | –
NCI-H1703 | – | – | – | – | – | – | – | – | – | – | – | – | – | – | – | 0.242 | 0.312 | 0.206 | 0.215 | 0.188
NCI-H1792 | – | – | – | – | – | 0.773 | 0.736 | 0.82 | – | 0.665 | 0.89 | 0.684 | 0.698 | 0.668 | 0.547 | 0.267 | 0.28 | – | 0.231 | 0.285
NCI-H2342 | 0.629 | 0.736 | 0.744 | 0.531 | 0.565 | 0.785 | 0.751 | 0.652 | 0.518 | 0.625 | 0.607 | 0.577 | 0.574 | 0.479 | 0.586 | – | – | – | – | –
SW 900 | 0.454 | 0.45 | 0.403 | – | 0.422 | 0.439 | 0.464 | 0.495 | – | 0.458 | 0.529 | 0.543 | 0.539 | 0.421 | 0.476 | – | – | – | – | –
